Test results reported in article PMC4357465, “Tool Compounds Robustly Increase Turnover of an Artificial Substrate by Glucocerebrosidase in Human Brain Lysates” (PLoS ONE, 2015).
“Also recorded” adds a separate entry of the source.

Target: T1, recombinant GBA3 (Homo sapiens, UniProt Q9H227)
T1 construct: purchased R&D Systems 5969-GH-10
T1 sequence (Q9H227 1-469): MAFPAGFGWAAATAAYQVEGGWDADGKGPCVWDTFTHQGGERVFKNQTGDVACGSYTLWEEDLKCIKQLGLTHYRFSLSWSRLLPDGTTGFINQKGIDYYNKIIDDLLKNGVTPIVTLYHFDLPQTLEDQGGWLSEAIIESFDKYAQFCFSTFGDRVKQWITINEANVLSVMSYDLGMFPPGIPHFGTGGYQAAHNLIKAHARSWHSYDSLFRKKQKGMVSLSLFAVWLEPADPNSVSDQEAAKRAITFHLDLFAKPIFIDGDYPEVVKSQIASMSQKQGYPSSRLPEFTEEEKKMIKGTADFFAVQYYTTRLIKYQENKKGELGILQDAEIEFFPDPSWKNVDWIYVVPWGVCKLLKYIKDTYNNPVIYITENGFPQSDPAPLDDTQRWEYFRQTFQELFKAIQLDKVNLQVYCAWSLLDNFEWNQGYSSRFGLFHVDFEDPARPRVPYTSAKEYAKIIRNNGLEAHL
Experiment: cell-free 4MUG assay with recombinant GBA3
Type: biochemical
Conditions: for less potent against GBA3 than GBA1: selectivity GBA1 over GBA3
Procedure: After incubation, 100 μl of assay buffer was added to the plate. The assay buffer was composed of 0.1 M citric acid and 0.2 M sodium phosphate dibasic adjusted to pH = 5.4 unless stated otherwise (McIlvaine Buffer). […] For IC50 and EC50 experiments using compounds an assay buffer of pH 5.4 was used.
The substrate, 4-methylumbelliferyl β-D-glucopyranoside (4MUG, Sigma, M3633) was then added to the plate to a final concentration of 1.7 mM (25 μl). 4MUG was freshly solubilized in water at 37°C prior to each experiment. The recombinant protein, compound, assay buffer, and substrate were incubated at 37°C for 30 minutes.
In experiments directly comparing enzymatic activities of GBA1, GBA2 and GBA3 (S1 Fig., S2 Fig. c, d) the following conditions were used. […] A 10-fold intermediate solution of compound serial dilution was prepared in an assay buffer; half log dilutions were used. […] 2 mM solution of 4MUG was prepared in an assay buffer. To start the reaction, 4.5 μl/well of this solution was added to the enzyme plate and was incubated for 30 minutes at 37°C. To stop the reaction, a 1M glycine solution, adjusted to pH = 10 using 1M NaOH was used. […] To test the effect of sodium taurocholate (Sigma, T4009), the assay was performed using the same procedure described in this paragraph. The assay buffer contained either 0mM (same as above), 3 mM, 7 mM or 20 mM Sodium Taurocholate.

| effect on GBA3 activity (1 μM) | less potent against GBA3 than GBA1 [fold] | less potent against GBA3 than GBA1 (listed as isofagomine) [fold] | SMILES | effect on activity of recombinant GBA3 (dose response, within the concentrations tested) |
| --- | --- | --- | --- | --- |
| – | – | – | O[C@H]1[C@H](O)[C@@H](O)[C@@H]2O[C@@H]2[C@@H]1O [CBE] | did not inhibit; also recorded: does not alter activity |
| did not have any substantial effect | > 100 | ≥ 100 | OC[C@H]1CNC[C@@H](O)[C@@H]1O [Isofagomine, isofagomine] | – |
